{
  "source": "patent US20170343549A9",
  "about": "“METHODS FOR DETECTING AND MONITORING COLORECTAL CANCER” (REGENTS OF THE UNIVERSITY OF MINNESOTA, priority 2015, published 2017)",
  "assay_type_in_all_cases": "in vivo, human",
  "key": {"TBXA2R": {"test_system": "TBXA2R", "test": "Immunohistochemistry staining of TBXA2R in polyps of FAP patients, aspirin users vs nonusers", "details": "epithelial cells from polyps, aspirin intake, FIG. 4B", "protocol": "(§1) All clinical studies using human subjects or human materials were approved by the Mayo Clinic review board. Volunteers were recruited by the Gastroenterology and Hepatology group at Mayo Clinic, Rochester, Minn. Individuals in the healthy control group (n=16) were normal patients who underwent colonoscopy screening. Familial adenomatous polyposis (FAP) patients who reported taking two or more standard (325 mg) aspirin tablets per week were classified as regular aspirin users (n=14) and those reporting consumption of less aspirin were classified as aspirin nonusers (n=24) (Chan et al., 2007. N Engl J Med 356 (21):2131-2142). Individuals in the sporadic colorectal cancer group (n=20) were patients who were diagnosed with colorectal cancer, but without a family history of colorectal cancer. Other inclusion criteria were as follows: age at 18-75 years old; gender ratio approximately 1:1; and a non-smoking history.\n(§2) Surgically resected human colon tissues at all clinical stages were fixed in 10% formalin overnight at room temperature. […] Immunohistochemistry staining intensity was quantified by calculating the integrated optical density (IOD, sum) of area of interest using the Image Pro-Plus 7.0 software program (Media Cybernetics, Inc., Rockville, Md.)."}, "Ki-67": {"test_system": "Ki-67", "test": "Immunohistochemistry staining of Ki-67 in polyps of FAP patients, aspirin users vs nonusers", "details": "epithelial cells from polyps, aspirin intake, FIG. 4B", "protocol": "as §1, §2"}, "the other four PGs": {"test_system": "the other four PGs", "test": "Circulating levels of the other four PGs in FAP patients, regular aspirin users vs nonusers (plasma enzyme immunoassay)", "details": "regular aspirin use vs nonusers, FIG. 4A", "protocol": "as §1, with “history. The measurement of PGs in plasma from patients was performed using enzyme immunoassay kits from Cayman Chemical Co. (Ann Arbor, Mich.) following the manufacturer's instructions. Briefly, blood was collected from a vein in the arm just inside the elbow using a 22 gauge needle. Before blood collection, the tourniquet was applied about three inches above the selected puncture site. […]” for “history.”"}, "circulating TXA2": {"test_system": "circulating TXA2", "test": "Circulating TXA2 level in FAP patients, regular aspirin users vs nonusers (plasma enzyme immunoassay)", "details": "regular aspirin use (two or more 325 mg tablets per week, n=14) vs nonusers (n=24), FIG. 4A", "protocol": "as §1, with “history. The measurement of PGs in plasma from patients was performed using enzyme immunoassay kits from Cayman Chemical Co. (Ann Arbor, Mich.) following the manufacturer's instructions. Briefly, blood was collected from a vein in the arm just inside the elbow using a 22 gauge needle. Before blood collection, the tourniquet was applied about three inches above the selected puncture site. […]” for “history.”"}, "TBXAS1": {"test_system": "TBXAS1", "test": "Immunohistochemistry staining of TBXAS1 in polyps of FAP patients, aspirin users vs nonusers", "details": "epithelial cells from polyps, aspirin intake, FIG. 4B", "protocol": "as §1, §2"}},
  "note": "Entries after “also recorded” stand apart in the source; their conditions may differ.",
  "data": [
    {"smiles": "CC(=O)Oc1ccccc1C(=O)O", "note": "[aspirin]", "values": [
      {"measurement": "expression of TBXA2R", "setting": "TBXA2R", "result": "lower expression"},
      {"measurement": "expression of Ki-67", "setting": "Ki-67", "result": "lower expression"},
      {"measurement": "levels of the other four PGs", "setting": "the other four PGs", "result": "little effect"},
      {"measurement": "circulating TXA2 level", "setting": "circulating TXA2", "result": "significant (p<0.001) decrease; also recorded: significantly decreased"},
      {"measurement": "expression of TBXAS1", "setting": "TBXAS1", "result": "lower expression"}
    ]}
  ]
}
